Among the data in the supplement of paper PMC10307832 are relative viability values, retold here.

Assay in all cases: relative viability (nuclei count vs DMSO), 5 days (fraction); higher = more cells survive
Compound in test [1]: NCC(=O)Nc1ccc(-n2nc(C(F)(F)F)cc2-c2ccc3c(ccc4ccccc43)c2)cc1 + COc1cccc2cc(-c3nc([C@H]4CC[C@H](C(=O)O)CC4)n4ncnc(N)c34)[nH]c12 [OSI-027] (partner 0.5 µM)
Put shortly: (§1)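 A single step with final 0.05% Triton X-100, 1% formaldehyde and 1 ug/ml Hoechst fixed the cells and stained nuclei 5 days after treatment. Lung cancer cell lines in 1536-well plates had been treated by pin tool the day after seeding with one drug alone or a fixed anchor-drug dose plus five library-drug doses (not always all listed) in √10 steps, and nuclei were counted on 4× images. Relative viability is the ratio of nuclei in treated wells to nuclei in vehicle wells, taken as the median of duplicate plates.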

Compound in test [2]: NCC(=O)Nc1ccc(-n2nc(C(F)(F)F)cc2-c2ccc3c(ccc4ccccc43)c2)cc1 + NC(=O)Nc1cc(-c2cccc(F)c2)sc1C(=O)N[C@H]1CCCNC1 [AZD7762] (partner 0.2 µM)
Put shortly:
as §1

Compound in test [3]: NCC(=O)Nc1ccc(-n2nc(C(F)(F)F)cc2-c2ccc3c(ccc4ccccc43)c2)cc1 + CCNC(=O)c1noc(-c2cc(C(C)C)c(O)cc2O)c1-c1ccc(CN2CCOCC2)cc1 [Luminespib] (partner 0.01 µM)
Summed up:
as §1

Compound in test [4]: NCC(=O)Nc1ccc(-n2nc(C(F)(F)F)cc2-c2ccc3c(ccc4ccccc43)c2)cc1 + CS(=O)(=O)CCNCc1ccc(-c2ccc3ncnc(Nc4ccc(OCc5cccc(F)c5)c(Cl)c4)c3c2)o1 [Lapatinib] (partner 2 µM)
Put shortly: as §1

NCI-H2347: the relative viability is 0.465 in test [1] (first compound 0.02 µM); 0.484 in test [1] (first compound 0.06325 µM); 0.606 in test [1] (first compound 0.2 µM); 0.503 in test [1] (first compound 0.6325 µM); 0.685 in test [1] (first compound 2 µM); 0.719 in test [2] (first compound 0.02 µM). The relative viability in test [2] (first compound 0.06325 µM) came out at 0.696; in test [2] (first compound 0.2 µM) it was 0.756; in test [2] (first compound 0.6325 µM), 0.817; in test [2] (first compound 2 µM), 0.75; in test [3] (first compound 0.02 µM) it was 0.427; in test [3] (first compound 0.06325 µM) it was 0.634. Further, the relative viability is 0.7 in test [3] (first compound 0.2 µM); 0.686 in test [3] (first compound 0.6325 µM); 0.7 in test [3] (first compound 2 µM); 0.883 in test [4] (first compound 0.02 µM); 0.939 in test [4] (first compound 0.06325 µM); 0.955 in test [4] (first compound 0.2 µM). Besides, the relative viability worked out at 1.03 in test [4] (first compound 0.6325 µM) and 0.884 in test [4] (first compound 2 µM).

For NCI-H2405, the relative viability in test [1] (first compound 0.02 µM) worked out at 0.634; in test [1] (first compound 0.06325 µM) it was 0.646; in test [1] (first compound 0.2 µM), 0.699; in test [1] (first compound 0.6325 µM) it was 0.642; in test [1] (first compound 2 µM), 0.689; in test [2] (first compound 0.02 µM), 0.725. The relative viability in test [2] (first compound 0.06325 µM) turned out to be 0.781; in test [2] (first compound 0.2 µM) it was 0.774; in test [2] (first compound 0.6325 µM) it was 0.728; in test [2] (first compound 2 µM), 0.718; in test [3] (first compound 0.02 µM), 0.686; in test [3] (first compound 0.06325 µM), 0.74. For the same cell line, the relative viability was 0.606 in test [3] (first compound 0.2 µM); 0.732 in test [3] (first compound 0.6325 µM); 0.746 in test [3] (first compound 2 µM); 1.05 in test [4] (first compound 0.02 µM); 1.12 in test [4] (first compound 0.06325 µM); 1.13 in test [4] (first compound 0.2 µM). For the same cell line, the relative viability is 1.02 in test [4] (first compound 0.6325 µM) and 1.13 in test [4] (first compound 2 µM).

Regarding NCI-H3122, the relative viability amounted to 1.04 in test [1] (first compound 0.02 µM); 0.941 in test [1] (first compound 0.06325 µM); 0.899 in test [1] (first compound 0.2 µM); 0.98 in test [1] (first compound 0.6325 µM); 0.876 in test [1] (first compound 2 µM); 0.897 in test [2] (first compound 0.02 µM). Moreover, the relative viability was determined as 0.983 in test [2] (first compound 0.06325 µM); 1 in test [2] (first compound 0.2 µM); 1.01 in test [2] (first compound 0.6325 µM); 0.969 in test [2] (first compound 2 µM); 0.0686 in test [3] (first compound 0.02 µM); 0.0831 in test [3] (first compound 0.06325 µM). Moreover, the relative viability in test [3] (first compound 0.2 µM) was 0.127; in test [3] (first compound 0.6325 µM), 0.113; in test [3] (first compound 2 µM), 0.116; in test [4] (first compound 0.02 µM), 1.08; in test [4] (first compound 0.06325 µM) it was 1.05; in test [4] (first compound 0.2 µM), 1.01. Further, the results for the relative viability in test [4] (first compound 0.6325 µM) and in test [4] (first compound 2 µM) were 0.988 and 0.934, respectively.

For the cell line PC-3 [JPC-3], the relative viability in test [1] (first compound 0.02 µM) came to 0.802; in test [1] (first compound 0.06325 µM), 0.761; in test [1] (first compound 0.2 µM), 0.777; in test [1] (first compound 0.6325 µM), 0.715; in test [1] (first compound 2 µM), 0.872; in test [2] (first compound 0.02 µM) it was 0.792. The relative viability in test [2] (first compound 0.06325 µM) came to 0.873; in test [2] (first compound 0.2 µM), 0.85; in test [2] (first compound 0.6325 µM) it was 0.88; in test [2] (first compound 2 µM) it was 0.832; in test [3] (first compound 0.02 µM) it was 0.66; in test [3] (first compound 0.06325 µM) it was 0.709. Further, the relative viability stood at 0.728 in test [3] (first compound 0.2 µM); 0.724 in test [3] (first compound 0.6325 µM); 0.776 in test [3] (first compound 2 µM); 0.411 in test [4] (first compound 0.02 µM); 0.458 in test [4] (first compound 0.06325 µM); 0.428 in test [4] (first compound 0.2 µM). Further, the figures for the relative viability in test [4] (first compound 0.6325 µM) and in test [4] (first compound 2 µM) were 0.444 and 0.528, respectively.

For PC-14, the relative viability in test [1] (first compound 0.02 µM) worked out at 0.769; in test [1] (first compound 0.06325 µM), 0.949; in test [1] (first compound 0.2 µM), 0.937; in test [1] (first compound 0.6325 µM) it was 0.82; in test [1] (first compound 2 µM), 0.726; in test [2] (first compound 0.02 µM) it was 0.419. For the same cell line, the relative viability in test [2] (first compound 0.06325 µM) was found to be 0.367; in test [2] (first compound 0.2 µM) it was 0.36; in test [2] (first compound 0.6325 µM), 0.328; in test [2] (first compound 2 µM) it was 0.381; in test [3] (first compound 0.02 µM), 0.146; in test [3] (first compound 0.06325 µM), 0.154. For the same cell line, the relative viability amounted to 0.19 in test [3] (first compound 0.2 µM); 0.218 in test [3] (first compound 0.6325 µM); 0.182 in test [3] (first compound 2 µM); 0.381 in test [4] (first compound 0.02 µM); 0.277 in test [4] (first compound 0.06325 µM); 0.305 in test [4] (first compound 0.2 µM). The relative viability in test [4] (first compound 0.6325 µM) came to 0.305; in test [4] (first compound 2 µM) it was 0.37.

RERF-LC-KJ: the relative viability in test [1] (first compound 0.02 µM) amounted to 0.542; in test [1] (first compound 0.06325 µM), 0.608; in test [1] (first compound 0.2 µM), 0.515; in test [1] (first compound 0.6325 µM), 0.644; in test [1] (first compound 2 µM), 0.583; in test [2] (first compound 0.02 µM), 0.959. The relative viability in test [2] (first compound 0.06325 µM) is 0.863; in test [2] (first compound 0.2 µM) it was 0.996; in test [2] (first compound 0.6325 µM), 1.12; in test [2] (first compound 2 µM), 1.03; in test [3] (first compound 0.02 µM), 1.32; in test [3] (first compound 0.06325 µM), 1.29. Also, the relative viability in test [3] (first compound 0.2 µM) was determined as 1.27; in test [3] (first compound 0.6325 µM) it was 1.19; in test [3] (first compound 2 µM), 1.1; in test [4] (first compound 0.02 µM) it was 0.955; in test [4] (first compound 0.06325 µM) it was 0.828; in test [4] (first compound 0.2 µM), 0.909. Also, the relative viability in test [4] (first compound 0.6325 µM) turned out to be 0.891; in test [4] (first compound 2 µM) it was 0.82.
